Measured values published in patent US20250009844A1, “MATURATION OF MUCOSAL DEFENSE AND GUT/LUNG FUNCTION IN THE PRETERM INFANT” (Novozymes A/S, priority 2017, published 2025).
No end group written: not given here.

How the values were obtained:
Assay type in all cases: in vivo
BALB/c mice [1] = experiment: Murine model of acute graft versus host disease, oral hBD-2 versus cyclosporine (Example 12)
Description: Treatment regime: 20 female BALB/c mice were irradiated with 4.5 Gy (2×498 sec) at intervals of at least 4 hours on day 0. Bone marrow was harvested: hind limbs harvested from 2 female WT C57BL/6 mice aseptically. Skeletal muscle was removed and epiphysis cut away. Lumen of bone flushed with PBS and cells pelleted and taken up. Harvest of T-cells: spleens from 2 female WT C57BL/6 mice were meshed through a […] cell strainer into a PBS filled dish. Cells were taken up in PBS and transferred into a 50 mL falcon tube and spun down. Cells were taken up in 1 mL PBS and 20 μL of CD4 microbead +20 μL CD8 microbeads per spleen added for incubation for 20 min at 4 degrees C. Cells were washed with PBS and applied to MACS separation in order to positively select CD4+ and CD8+ cells. Positively selected T-cells were counted and taken up. Transplantation: directly after the second irradiation, all WT BALB/c recipient mice were injected with 5×1.000.000 BM cells (50 μL) i.v. into the retroorbital venous plexus under isoflurane anesthesia. 20 BALB/c mice were treated with 1.2 mg of hBD2/kg BW/day (n=7); 50 mg cyclosporine/kg BW on days 0, 3, 6 and 9 (n=7) or 100 uL PBS per day vial oral gavage (n=6) from day 0-10.
The mice were weighed at regular intervals during the study and survival was monitored for 90 days.

BALB/c mice [2] = experiment: Therapeutic intervention in murine house dust mite/Freund's complete adjuvant driven model of allergic asthma (Example 6); conditions: for Increase of airway resistance (AHR): vs HDM challenged vehicle
Description: Treatment regime: Female 7-10 weeks old BALB/c mice were randomly allocated into 6 study groups one day prior to study start and subcutaneously (SC) sensitized to house dust mite (100 μg HDM in 200 μL saline plus Freund's complete adjuvant in 0.9% saline). Mice were then intranasally (IN) challenged with HDM on day 14 (HDM 25 μg in 50 μL of saline). Dexamethasone was administered orally (1 mg/kg BID; 50 μL phosphate buffered saline (PBS)) on day 14. hBD-2 was administered IN or orally (1.7 mg/kg TID IN; 0.4 mg/kg TID IN; 0.4 mg/kg TID orally, 50 μL phosphate buffered saline) on day 14. The initial dose was administered 60 minutes prior to challenge, and the subsequent two doses approximately 6 hours apart (FIG. 3).
Airway inflammation: At 48 hours post challenge, bronchoalveolar lavage was performed washing the lungs with 3 volumes of cold PBS (0.4; 0.3 and 0.3 mL, total 1 mL). Total and differential leucocyte cell counts were determined on an automated haematological analyser Sysmex XT-2000iV.
Data are represented as airway resistance at […] methacholine and as dose responsive curves. Lung sampling for cytokine analysis: After completion of every BAL, lungs were removed from the thorax, snap frozen in liquid nitrogen and stored frozen at −80 degrees Celsius until analysis of cytokine concentration of IL-1β, TNF-α, IL-6, IL-10 and IFNγ by ELISA.

[3] = Therapeutic high fat diet model in diet-induced obese mice, weight and fat percentage (Example 2); conditions: HFD plus hBD-2 vs standard HFD
Source text: The overall design of the study is shown in FIG. 1, lower panel, “Therapeutic study”. Mice and diets. The experiment elucidates the effect of hBD-2 and HD5 on the microbiota in diet-induced obese mice. A run-in period of 13 weeks where mice were fed a very HFD (60% energy from fat) preceded the intervention. Only mice meeting the criteria of a minimum of 12 gram weight gain (approximately 50% of initial bodyweight) during the run-in period were included in the final analyses. […] They were exposed to all experimental tests, but excluded from the analyses.
Treatment regimen. Before the intervention all mice were MR scanned. Cages of mice were allocated to experimental groups based on their fat mass. All subsequent measures were paired with data from the same mouse before the intervention. A LFD (low fat diet) reference group was running in parallel. As controls for the intervention 2 additional groups were included: a) very HFD and b) LFD. Experimental mice stayed on the very HFD during the intervention. The mice were on the experimental diet for 10 weeks. They were co-housed throughout the experiment, 4 mice per cage, 3 cages per group. All tests ran over 3 days, 1 cage per group per day.

[4] = test system: bacteria localization at the surface of the intestinal mucosa; experiment: Localization of bacteria by FISH with mucin immunostaining, lysis zone (Example 14); conditions: orally administered; compared with mice on a low fat or western diet
Description: Immunostaining of mucins and localization of bacteria by FISH Mucus immunostaining was paired with fluorescent in situ hybridization (FISH), as previously described in order to analyze bacteria localization at the surface of the intestinal mucosa. Briefly, colonic tissues (proximal colon, 2nd cm from the cecum) without fecal material were placed in methanol-Carnoy's fixative solution (60% methanol, 30% chloroform, 10% glacial acetic acid) for a minimum of 3 hours at room temperature. Tissues were then washed in methanol 2×30 min, ethanol 2×15 min, ethanol/xylene (1:1), 15 min and xylene 2×15 min, followed by embedding in Paraffin with a vertical orientation. Five μm sections were performed and dewax by preheating at 60° C. for 10 min, followed by xylene 60° C. for 10 min, xylene for 10 min and 99.5% ethanol for 10 minutes. Hybridization step was performed at 50° C. overnight with EUB338 probe (5′-GCTGCCTCCCGTAGGAGT-3′, with a 5′ labeling using Alexa 647) diluted to a final concentration of 10 μg/mL in hybridization buffer (20 mM Tris-HCl, pH 7.4, 0.9 M NaCl, 0.1% SDS, 20% formamide). After washing 10 min in wash buffer (20 mM Tris-HCl, pH 7.4, 0.9 M NaCl) and 3×10 min in PBS, PAP pen (Sigma-Aldrich) was used to mark around the section and block solution (5% fetal bovine serum in PBS) was added for 30 min at 4° C. […]

[5] = hBD-2 intranasal, both doses, dexamethasone 1 mg/kg BID orally

For “human beta defensin 2 (GIGDPVTCLKSGAICHPVFCPRRYKQIGTCGLPGTKCCKKP; ends and bridges not checked; cysteine pairing not given here; listed as Homo sapiens) [hBD-2]”, the Mortality (BALB/c mice [1]; 7 mice oral hBD-2 for 10 days, p=0.03) was “statistically significant reduction of mortality”, the “Weight loss following bone marrow transplantation” value (BALB/c mice [1]; compared with the PBS treated mice) was “lost statistically significantly less weight” and the “Animals that had died by day 90” value (BALB/c mice [1]; hBD2 1.2 mg/kg BW/day day 0-10 (n=7), cyclosporine 50 mg/kg BW on days 0, 3, 6 and 9 (n=7), PBS n=6, all but one died) was 1. The “Total cell count in BALF” value (BALB/c mice [2]; 48 hours post challenge, hBD-2 intranasal, both doses (0.4 mg/kg/day TID and 1.7 mg/kg/day TID), dexamethasone 1 mg/kg BID orally) was “significantly inhibited total, neutrophil and macrophage cell counts”, the “Eosinophil count in BALF” value (BALB/c mice [2]; [5]) was “trend towards lowering of eosinophils” and the “Macrophage count in BALF” value (BALB/c mice [2]; [5]) was “significantly inhibited total, neutrophil and macrophage cell counts”. For the same substance, the “Neutrophil count in BALF” value (BALB/c mice [2]; [5]) was “significantly inhibited total, neutrophil and macrophage cell counts”, the “TNF-α level in lung tissue homogenate” value (BALB/c mice [2]; intranasal hBD-2) was “not significantly different from the control” and the “Decrease of pulmonary compliance” value (BALB/c mice [2]; intranasal hBD-2 TID on day 14) was “effectively inhibited”. For the same substance, the “Increase of airway resistance (AHR)” value (BALB/c mice [2]; intranasal hBD-2 TID on day 14) was “effectively inhibited increase of airway resistance”, the “Decrease of pulmonary compliance” value (BALB/c mice [2]; oral hBD-2 0.4 mg/kg TID on day 14) was “effectively inhibited” and the “Increase of airway resistance (AHR)” value (BALB/c mice [2]; oral on day 14: hBD-2 0.4 mg/kg TID, dexamethasone 1 mg/kg BID) was “effectively inhibited increase of airway resistance”. The “TNF-α level in lung tissue homogenate” value (BALB/c mice [2]; oral: hBD-2 0.4 mg/kg TID, dexamethasone 1 mg/kg BID, vs HDM/vehicle control) was “significantly reduced TNF-α”, the Weight gain ([3]; first 4 weeks post dietary intervention, p=0.07) was “tended to gain less weight the first 4 weeks post dietary intervention, although not significant” and the Weight gain ([3]; from week 4 to the end of the study period, p=0.82) was “gained similar weight as the standard HFD group”. The “Distance from the intestinal lining to bacterial population (lysis zone)” value [4] was “profound effect on the distance”.
